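A five-concentration, 48-hour dose response in 96-well plates underlies each endpoint, interpolated linearly between surrounding concentrations. The concentration for 50% growth inhibition is given as GI50.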 Calls of active or inactive are those of the source. Rule as the data show it: active = GI50 up to about 1.1 µM and inactive = higher.
Key:
Experiment in all cases: NCI-60 cell line screen, 48 h
KM12 = tested on: KM12
TK-10 = tested on: TK-10
Malme-3M = tested on: Malme-3M
MCF7 = tested on: MCF7
SNB-75 = tested on: SNB-75
CCRF-CEM = tested on: CCRF-CEM
MOLT-4 = tested on: MOLT-4
HCT-116 = tested on: HCT-116
OVCAR-8 = tested on: OVCAR-8
K562 = tested on: K562
T47D = tested on: T47D
EKVX = tested on: EKVX
SK-MEL-2 = tested on: SK-MEL-2
CAKI-1 = tested on: CAKI-1
NCI-H23 = tested on: NCI-H23
SN12C = tested on: SN12C
LOX IMVI = tested on: LOX IMVI
U-251 = tested on: U-251
SF-539 = tested on: SF-539
NCI-H522 = tested on: NCI-H522

Clc1ccccc1C(Nc1cnccn1)Nc1cnccn1
GI50 (KM12): > 100 µM (inactive)
GI50 (TK-10): > 100 µM (inactive)
GI50 (Malme-3M): > 100 µM (inactive)
GI50 (MCF7): > 100 µM (inactive)
GI50 (SNB-75): 96.6 µM (inactive)
GI50 (CCRF-CEM): 0.675 µM (active)
GI50 (MOLT-4): 23.6 µM (inactive)
GI50 (HCT-116): 98.2 µM (inactive)
GI50 (OVCAR-8): > 100 µM (inactive)
GI50 (K562): 4.12 µM (inactive)
GI50 (T47D): > 100 µM (inactive)
GI50 (EKVX): > 100 µM (inactive)
GI50 (SK-MEL-2): > 100 µM (inactive)
GI50 (CAKI-1): > 100 µM (inactive)
GI50 (NCI-H23): > 100 µM (inactive)
GI50 (SN12C): > 100 µM (inactive)
GI50 (LOX IMVI): > 100 µM (inactive)
GI50 (U-251): > 100 µM (inactive)
GI50 (SF-539): > 100 µM (inactive)
GI50 (NCI-H522): > 100 µM (inactive)

Cc1ccc(N/N=C2\C3=C(CCC(C)(C)O3)C(=O)c3ccccc32)cc1
GI50 (KM12): 21.8 µM (inactive)
GI50 (TK-10): 26.8 µM (inactive)
GI50 (Malme-3M): 9.16 µM (inactive)
GI50 (MCF7): 13.7 µM (inactive)
GI50 (SNB-75): 19.2 µM (inactive)
GI50 (CCRF-CEM): 15.1 µM (inactive)
GI50 (MOLT-4): 28.8 µM (inactive)
GI50 (HCT-116): 21.3 µM (inactive)
GI50 (OVCAR-8): 34.4 µM (inactive)
GI50 (K562): 32.4 µM (inactive)
GI50 (T47D): 18.2 µM (inactive)
GI50 (EKVX): 25.5 µM (inactive)
GI50 (SK-MEL-2): 18.9 µM (inactive)
GI50 (CAKI-1): 28.2 µM (inactive)
GI50 (NCI-H23): 10.8 µM (inactive)
GI50 (SN12C): 14.6 µM (inactive)
GI50 (LOX IMVI): 10.3 µM (inactive)
GI50 (U-251): 37.5 µM (inactive)
GI50 (SF-539): 39.3 µM (inactive)
GI50 (NCI-H522): 32.4 µM (inactive)

COC(=O)[C@H](C)N1C(=O)N[C@@H](C(C)C)C1=O
GI50 (KM12): > 100 µM (inactive)
GI50 (TK-10): > 100 µM (inactive)
GI50 (Malme-3M): > 100 µM (inactive)
GI50 (MCF7): > 100 µM (inactive)
GI50 (SNB-75): 82 µM (inactive)
GI50 (CCRF-CEM): > 100 µM (inactive)
GI50 (MOLT-4): > 100 µM (inactive)
GI50 (HCT-116): > 100 µM (inactive)
GI50 (OVCAR-8): > 100 µM (inactive)
GI50 (K562): > 100 µM (inactive)
GI50 (T47D): > 100 µM (inactive)
GI50 (EKVX): > 100 µM (inactive)
GI50 (SK-MEL-2): > 100 µM (inactive)
GI50 (CAKI-1): > 100 µM (inactive)
GI50 (NCI-H23): > 100 µM (inactive)
GI50 (SN12C): > 100 µM (inactive)
GI50 (LOX IMVI): > 100 µM (inactive)
GI50 (U-251): > 100 µM (inactive)
GI50 (SF-539): > 100 µM (inactive)
GI50 (NCI-H522): > 100 µM (inactive)

Cc1ccc2c(c1)C(=O)C(Cc1ccccc1C(=O)O)C2 (stereo not given)
GI50 (KM12): > 100 µM (inactive)
GI50 (TK-10): > 100 µM (inactive)
GI50 (Malme-3M): > 100 µM (inactive)
GI50 (MCF7): > 100 µM (inactive)
GI50 (SNB-75): > 100 µM (inactive)
GI50 (CCRF-CEM): > 100 µM (inactive)
GI50 (MOLT-4): > 100 µM (inactive)
GI50 (HCT-116): > 100 µM (inactive)
GI50 (OVCAR-8): > 100 µM (inactive)
GI50 (K562): > 100 µM (inactive)
GI50 (T47D): > 100 µM (inactive)
GI50 (EKVX): > 100 µM (inactive)
GI50 (SK-MEL-2): > 100 µM (inactive)
GI50 (CAKI-1): > 100 µM (inactive)
GI50 (NCI-H23): > 100 µM (inactive)
GI50 (SN12C): > 100 µM (inactive)
GI50 (LOX IMVI): > 100 µM (inactive)
GI50 (U-251): > 100 µM (inactive)
GI50 (SF-539): > 100 µM (inactive)
GI50 (NCI-H522): > 100 µM (inactive)

NC1=NC(c2ccc(Cl)cc2)N(c2ccc(S(=O)(=O)Nc3ncccn3)cc2)C(N)=N1 (stereo not given)
GI50 (KM12): > 100 µM (inactive)
GI50 (TK-10): > 100 µM (inactive)
GI50 (Malme-3M): > 100 µM (inactive)
GI50 (MCF7): > 100 µM (inactive)
GI50 (SNB-75): > 100 µM (inactive)
GI50 (CCRF-CEM): > 100 µM (inactive)
GI50 (MOLT-4): 54.8 µM (inactive)
GI50 (HCT-116): > 100 µM (inactive)
GI50 (OVCAR-8): > 100 µM (inactive)
GI50 (K562): > 100 µM (inactive)
GI50 (T47D): > 100 µM (inactive)
GI50 (EKVX): > 100 µM (inactive)
GI50 (SK-MEL-2): > 100 µM (inactive)
GI50 (CAKI-1): > 100 µM (inactive)
GI50 (NCI-H23): > 100 µM (inactive)
GI50 (SN12C): > 100 µM (inactive)
GI50 (LOX IMVI): > 100 µM (inactive)
GI50 (U-251): > 100 µM (inactive)
GI50 (SF-539): > 100 µM (inactive)
GI50 (NCI-H522): > 100 µM (inactive)

CN1C[C@@H]2CCCN2P1Oc1cccc2cccnc12 (stereo not given in full)
GI50 (KM12): 40.2 µM (inactive)
GI50 (TK-10): 75.7 µM (inactive)
GI50 (Malme-3M): 25.8 µM (inactive)
GI50 (MCF7): 12 µM (inactive)
GI50 (SNB-75): > 100 µM (inactive)
GI50 (CCRF-CEM): 2.41 µM (inactive)
GI50 (MOLT-4): 6.76 µM (inactive)
GI50 (HCT-116): 8.69 µM (inactive)
GI50 (OVCAR-8): 42.6 µM (inactive)
GI50 (K562): 9.42 µM (inactive)
GI50 (T47D): 9.77 µM (inactive)
GI50 (EKVX): 29 µM (inactive)
GI50 (SK-MEL-2): 50.7 µM (inactive)
GI50 (CAKI-1): 35.3 µM (inactive)
GI50 (NCI-H23): 17.9 µM (inactive)
GI50 (SN12C): 22.9 µM (inactive)
GI50 (LOX IMVI): 97.5 µM (inactive)
GI50 (U-251): 35.2 µM (inactive)
GI50 (SF-539): 44.9 µM (inactive)
GI50 (NCI-H522): 18.1 µM (inactive)

CC1C(c2ccccc2O)c2cc3c(cc2OC1N1CCOCC1)OCO3 (stereo not given)
GI50 (KM12): 27.3 µM (inactive)
GI50 (TK-10): 30.3 µM (inactive)
GI50 (Malme-3M): 16.9 µM (inactive)
GI50 (MCF7): 33 µM (inactive)
GI50 (SNB-75): 27.8 µM (inactive)
GI50 (CCRF-CEM): 20.7 µM (inactive)
GI50 (MOLT-4): 25.8 µM (inactive)
GI50 (HCT-116): 26.4 µM (inactive)
GI50 (OVCAR-8): 32.1 µM (inactive)
GI50 (K562): 22.1 µM (inactive)
GI50 (T47D): 31.7 µM (inactive)
GI50 (EKVX): 34.3 µM (inactive)
GI50 (SK-MEL-2): 29 µM (inactive)
GI50 (CAKI-1): 25.1 µM (inactive)
GI50 (NCI-H23): 32.4 µM (inactive)
GI50 (SN12C): 37.1 µM (inactive)
GI50 (LOX IMVI): 18 µM (inactive)
GI50 (U-251): 26.5 µM (inactive)
GI50 (SF-539): 20.5 µM (inactive)
GI50 (NCI-H522): 12.4 µM (inactive)

— ChEMBL document CHEMBL1201862, “PubChem BioAssay data set” (2004)
